Where two headings read alike, the source gives them in different places.
Legend:
[1] = Particle size distribution of ezetimibe (laser diffraction, e.g. Malvern); type: physicochemical
Description: In a particularly exemplified embodiment according to the present invention, the particle size distribution d(0.5) that is present after step (b) and prior to step (c), after step (c) and prior to step (d), and/or after step (d), corresponds essentially to or is smaller than the primary particle size distribution d(0.5) of the API that is used for providing the suspension of step (a). This (further) contributes to a further improved pharmaceutical composition or dosage form, respectively, as e.g. the dissolution profile and controllability are further enhanced. In general, the particle size distribution of a powder, or granular material, or particles e.g. dispersed in fluid, is a list of values or a mathematical function that defines the relative amounts of particles present, sorted according to size. The nomenclature describing the particle size distribution is herein referred to as “d(0.5)”. For example, a d(0.5) of 5 μm means that 50% (by volume) of the particles have a size less than or equal to 5 μm, as tested by any conventional method such as laser diffraction method (e.g. laser diffraction Malvern). When measuring the particle size distribution by laser diffraction Malvern, an appropriate amount of sample (usually a few drops of suspension) is put into a gently mixing chamber filled with water. From this chamber, the sample continuously flows through a measuring chamber and the particle size distribution is determined by laser diffraction. Within the meaning of the present invention, the term “particle size distribution d(0.5) corresponds essentially to or is smaller than” denotes that (i) the particle size distribution d(0.5) of the primary particles when measured after deagglomeration, i.e. after the high energy input treatment has been applied to the suspension containing the API particles, essentially corresponds to the particle size distribution d(0.5) of the primary particles that were used for providing the suspension of step (a); or (ii), alternatively, it denotes that the particle size distribution d(0.5) when measured after deagglomeration is smaller than the particle size distribution d(0.5) of the primary particles that were used for providing the suspension of step (a).
The particle size distribution d(0.5) of the primary API particles used for providing the suspension of step (a) in (A), (B) and (C) can be assessed by any method that is known to a person skilled in the art, such as by using laser diffraction method (e.g. Malvern Mastersizer, see above). As described elsewhere herein, said primary API particles may be present deagglomerated, however said particles may also be present in an agglomerated state. In the latter case, it is also possible to determine the particle size distribution d(0.5) by laser diffraction. If appropriate, it is preferred that the method for carrying out the first measurement corresponds to the method used for carrying out the second measurement.
The method according to the present invention is particularly useful for processing API particles having a particle size distribution d(0.5) that is relatively small, e.g. a particle size distribution d(0.5) where agglomeration is generated (critical particle size/particle size distribution). The critical particle size/particle size distribution for a selected API is known to a person skilled in the art. Further, said size/size distribution can be determined by any suitable method that is known to a person skilled in the art, such as by using SEM or laser diffraction. Usually SEM or more preferably disintegrated tablet suspension is recorded under a visual microscope and is processed with particle recognition software to obtain an estimation of particle size distribution. On SEM pictures, eventually occurring agglomerates are also visible. When using laser diffraction, a suspension of the API is transferred to the dispersing chamber containing water. […]

[2] = cited from earlier work
[3] = Example 3, Table 1, particle size after deagglomeration (suspension passed through ball mill)
[4] = Example 3, Table 1, starting particle size
[5] = Example 4, Table 2, particle size after deagglomeration (high energy rotor-stator mixer)
[6] = Example 4, Table 2, starting particle size
[7] = Example 6, Table 3, particle size after milling (rotor-stator mixer, then ball mill)
[8] = Example 6, Table 3, starting particle size
[9] = Example 7, Table 4, particle size after milling (rotor-stator mixer, then ball mill)
[10] = Example 7, Table 4, starting particle size

- size below which 50% of micronized ezetimibe particles were ([1]; Comparative Example 5, micronized starting ezetimibe): 3.9 micrometers
- D(0.1) [1, 3]: 0.84 μm
- D(0.5) [1, 3]: 2.98 μm
- D(0.9) [1, 3]: 6.28 μm
- D(0.1) [1, 4]: 0.30 μm
- D(0.5) [1, 4]: 2.97 μm
- D(0.9) [1, 4]: 6.87 μm
- change of particle size distribution d(0.5) ([1]; Example 3, suspension passed through a ball mill): remained essentially unchanged
- D(0.1) [1, 5]: 0.83 μm
- D(0.5) [1, 5]: 2.54 μm
- D(0.9) [1, 5]: 5.03 μm
- D(0.1) [1, 6]: 0.30 μm
- D(0.5) [1, 6]: 2.97 μm
- D(0.9) [1, 6]: 6.87 μm
- change of particle size distribution d(0.5) ([1]; Example 4, suspension mixed with high energy rotor-stator mixer): remained unchanged
- D(0.1) [1, 7]: 0.24 μm
- D(0.5) [1, 7]: 1.11 μm
- D(0.9) [1, 7]: 4.35 μm
- D(0.1) [1, 8]: 0.82 μm
- D(0.5) [1, 8]: 3.29 μm
- D(0.9) [1, 8]: 6.49 μm
- D(0.1) [1, 9]: 0.63 μm
- D(0.5) [1, 9]: 1.99 μm
- D(0.9) [1, 9]: 5.49 μm
- D(0.1) [1, 10]: 0.83 μm
- D(0.5) [1, 10]: 2.76 μm
- D(0.9) [1, 10]: 5.19 μm
Compound: O=C1[C@H](CC[C@H](O)c2ccc(F)cc2)[C@@H](c2ccc(O)cc2)N1c1ccc(F)cc1 [ezetimibe]
- solubility ([2]; in ethanol, methanol, and acetone): freely to very soluble
- solubility ([2]; in water): particularly poorly soluble

From patent publication US10357431B2, “Process for the preparation of a pharmaceutical composition comprising a low soluble pharmaceutically active ingredient” (Lek Pharmaceuticals d.d., priority 2010, dated 2019)
